# Reference: ChEMBL document CHEMBL4840352 (J Med Chem, 2021)
# Activity calls are given as the source filed them. No cut-off for these calls is given here.
# Experiments:
# MOLM-13 [1] = assay: Antiproliferative activity against human MOLM-13 cells incubated for 48 hrs by CCK-8 assay; format: functional, cell-based; conditions: MOLM-13, 48 h
# MV4-11 [2] = assay: Antiproliferative activity against human MV4-11 cells incubated for 48 hrs by CCK-8 assay; format: functional, cell-based; conditions: MV4-11, 48 h
# [3] = biological target: CDK7/Cyclin H/MNAT1 (Homo sapiens) (UniProt P51946+P50613+P51948); assay: Inhibition of CDK7/cyclinH/MAT1 (unknown origin) at 1000 nM relative to control; format: protein-complex assay
# [4] = biological target: Serine/threonine-protein kinase 4 (Homo sapiens) (UniProt Q13043); assay: Inhibition of MST1 (unknown origin) at 1000 nM relative to control
# [5] = biological target: Proto-oncogene tyrosine-protein kinase Src (Homo sapiens) (UniProt P12931); assay: Inhibition of SRC (unknown origin) at 1000 nM relative to control
# [6] = biological target: Maternal embryonic leucine zipper kinase (Homo sapiens) (UniProt Q14680); assay: Inhibition of MELK (unknown origin) at 1000 nM relative to control
# [7] = biological target: Serine/threonine-protein kinase TBK1 (Homo sapiens) (UniProt Q9UHD2); assay: Inhibition of TBK1 (unknown origin) at 1000 nM relative to control
# [8] = biological target: Serine/threonine-protein kinase MARK1 (Homo sapiens) (UniProt Q9P0L2); assay: Inhibition of MARK1 (unknown origin) at 1000 nM relative to control
# [9] = biological target: ALK tyrosine kinase receptor (Homo sapiens) (UniProt Q9UM73); assay: Inhibition of ALK (unknown origin) at 1000 nM relative to control
# [10] = biological target: Aurora kinase A (Homo sapiens) (UniProt O14965); assay: Inhibition of AURORA-A (unknown origin) at 1000 nM relative to control
# [11] = biological target: Glycogen synthase kinase-3 alpha (Homo sapiens) (UniProt P49840); assay: Inhibition of GSK3alpha (unknown origin) at 1000 nM relative to control
# [12] = biological target: RAC-alpha serine/threonine-protein kinase (Homo sapiens) (UniProt P31749); assay: Inhibition of AKT1 (unknown origin) at 1000 nM relative to control
# RAC-alpha serine/threonine-protein kinase (Homo sapiens), sequence (P31749 whole entry): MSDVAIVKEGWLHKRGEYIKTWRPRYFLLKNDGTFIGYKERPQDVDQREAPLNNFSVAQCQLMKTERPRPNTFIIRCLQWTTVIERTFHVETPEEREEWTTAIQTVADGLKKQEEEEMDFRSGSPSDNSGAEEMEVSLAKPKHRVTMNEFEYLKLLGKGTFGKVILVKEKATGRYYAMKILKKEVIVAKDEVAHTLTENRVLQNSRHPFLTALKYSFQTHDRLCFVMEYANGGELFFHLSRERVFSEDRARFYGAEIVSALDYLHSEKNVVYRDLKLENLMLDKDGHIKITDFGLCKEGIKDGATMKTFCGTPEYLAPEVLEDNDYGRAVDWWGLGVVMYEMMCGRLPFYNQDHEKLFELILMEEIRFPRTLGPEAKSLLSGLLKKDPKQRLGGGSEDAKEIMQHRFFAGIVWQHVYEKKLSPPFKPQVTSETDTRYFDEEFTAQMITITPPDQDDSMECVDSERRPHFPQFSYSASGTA
# MOLM-13 [13] = assay: Induction of apoptosis in human MOLM-13 cells after 48 hrs by Annexin-V/PI staining based flow cytometry; format: functional, cell-based; conditions: dose 1.25-10 nM
# MV4-11 [14] = assay: Induction of apoptosis in human MV4-11 cells after 48 hrs by Annexin-V/PI staining based flow cytometry; format: functional, cell-based; conditions: dose 1.25-10 nM
# MOLM-13 [15] = assay: Induction of apoptosis in human MOLM-13 cells assessed as downregulation of Mcl-1 level at 15 nM measured upto 12 hrs by Western blot analysis; format: functional, cell-based; conditions: time hrs <=12
# MV4-11 [16] = assay: Induction of apoptosis in human MV4-11 cells assessed as downregulation of Mcl-1 level at 15 nM measured upto 12 hrs by Western blot analysis; format: functional, cell-based; conditions: time hrs <=12
# MOLM-13 [17] = assay: Induction of apoptosis in human MOLM-13 cells assessed as upregulation of cleaved caspase-3 level at 15 nM by Western blot analysis; format: functional, cell-based; conditions: time 0-12 hrs, TDE = time-dependent effect
# [18] = biological target: Mast/stem cell growth factor receptor Kit (Homo sapiens) (UniProt P10721); assay: Induction of KIT degradation in human MV4-11 cells at 0 to 25 nM after 24 hrs by Western blot analysis; format: cell-based; conditions: dose 0-25 nM
# Mast/stem cell growth factor receptor Kit (Homo sapiens), sequence (P10721 whole entry): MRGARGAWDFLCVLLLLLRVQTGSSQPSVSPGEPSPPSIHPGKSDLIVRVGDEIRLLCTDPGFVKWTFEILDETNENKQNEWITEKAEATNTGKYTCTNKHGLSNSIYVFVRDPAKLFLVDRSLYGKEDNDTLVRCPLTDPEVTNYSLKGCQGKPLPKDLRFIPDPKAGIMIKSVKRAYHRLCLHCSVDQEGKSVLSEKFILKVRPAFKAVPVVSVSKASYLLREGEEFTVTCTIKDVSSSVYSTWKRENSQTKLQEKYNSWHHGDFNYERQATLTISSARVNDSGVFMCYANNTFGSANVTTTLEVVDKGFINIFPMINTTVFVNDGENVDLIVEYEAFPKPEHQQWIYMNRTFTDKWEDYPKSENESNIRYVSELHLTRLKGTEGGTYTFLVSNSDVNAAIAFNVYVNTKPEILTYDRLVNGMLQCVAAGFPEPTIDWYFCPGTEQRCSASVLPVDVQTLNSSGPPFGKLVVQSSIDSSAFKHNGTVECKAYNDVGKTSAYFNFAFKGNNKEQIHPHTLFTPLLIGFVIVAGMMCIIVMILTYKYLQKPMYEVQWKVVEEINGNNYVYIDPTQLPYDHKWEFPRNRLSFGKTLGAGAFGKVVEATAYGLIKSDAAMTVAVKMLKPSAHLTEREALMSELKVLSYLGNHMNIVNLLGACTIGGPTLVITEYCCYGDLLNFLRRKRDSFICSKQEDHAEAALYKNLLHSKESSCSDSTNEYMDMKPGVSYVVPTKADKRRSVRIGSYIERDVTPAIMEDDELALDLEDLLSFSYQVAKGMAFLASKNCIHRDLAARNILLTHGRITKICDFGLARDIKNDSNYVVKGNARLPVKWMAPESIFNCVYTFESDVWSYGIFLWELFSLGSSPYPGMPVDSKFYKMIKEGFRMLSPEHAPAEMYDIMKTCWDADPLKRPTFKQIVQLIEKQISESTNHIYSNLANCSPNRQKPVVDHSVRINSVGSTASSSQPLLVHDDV
# [19] = biological target: Receptor-type tyrosine-protein kinase FLT3 (Homo sapiens) (UniProt P36888); assay: Inhibition of FLT3 in human MOLM-13 cells assessed as reduction in FLT3 phosphorylation at 15 nM by Western blot analysis; format: cell-based; conditions: time 0-12 hrs, TDE = time-dependent effect
# Receptor-type tyrosine-protein kinase FLT3 (Homo sapiens), sequence (P36888 whole entry): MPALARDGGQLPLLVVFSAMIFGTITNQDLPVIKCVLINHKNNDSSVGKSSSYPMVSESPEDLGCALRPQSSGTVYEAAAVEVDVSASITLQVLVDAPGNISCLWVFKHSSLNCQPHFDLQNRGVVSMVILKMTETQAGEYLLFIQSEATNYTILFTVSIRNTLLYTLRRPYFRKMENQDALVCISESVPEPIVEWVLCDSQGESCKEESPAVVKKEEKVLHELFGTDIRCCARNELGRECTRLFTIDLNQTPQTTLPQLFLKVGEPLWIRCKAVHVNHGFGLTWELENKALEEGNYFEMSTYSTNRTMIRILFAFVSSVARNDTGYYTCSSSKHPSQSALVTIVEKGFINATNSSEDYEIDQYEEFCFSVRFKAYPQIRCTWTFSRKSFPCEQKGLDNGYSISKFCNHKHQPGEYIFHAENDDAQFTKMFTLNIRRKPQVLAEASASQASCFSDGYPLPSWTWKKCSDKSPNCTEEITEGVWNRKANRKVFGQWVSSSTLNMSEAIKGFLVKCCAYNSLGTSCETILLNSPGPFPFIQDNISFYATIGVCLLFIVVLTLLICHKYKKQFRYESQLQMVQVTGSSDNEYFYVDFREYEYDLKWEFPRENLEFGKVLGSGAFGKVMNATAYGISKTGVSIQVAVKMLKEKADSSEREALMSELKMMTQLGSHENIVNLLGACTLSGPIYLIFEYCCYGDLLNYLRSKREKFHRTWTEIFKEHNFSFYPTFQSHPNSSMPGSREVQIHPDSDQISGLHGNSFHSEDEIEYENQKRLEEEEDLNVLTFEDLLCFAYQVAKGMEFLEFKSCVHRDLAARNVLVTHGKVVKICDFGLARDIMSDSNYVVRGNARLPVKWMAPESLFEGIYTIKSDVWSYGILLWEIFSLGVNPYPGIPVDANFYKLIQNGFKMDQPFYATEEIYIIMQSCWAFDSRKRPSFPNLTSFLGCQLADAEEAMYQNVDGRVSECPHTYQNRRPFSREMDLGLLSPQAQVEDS
# [20] = biological target: Receptor-type tyrosine-protein kinase FLT3 (Homo sapiens) (UniProt P36888); assay: Inhibition of FLT3 in human MOLM-13 cells assessed as reduction in STAT5 phosphorylation at 15 nM by Western blot analysis; format: cell-based; conditions: time 0-12 hrs, TDE = time-dependent effect
# [21] = biological target: Receptor-type tyrosine-protein kinase FLT3 (Homo sapiens) (UniProt P36888); assay: Inhibition of FLT3 in human MV4-11 cells assessed as reduction in STAT5 phosphorylation at 15 nM by Western blot analysis; format: cell-based; conditions: time 0-12 hrs, TDE = time-dependent effect
# [22] = biological target: Receptor-type tyrosine-protein kinase FLT3 (Homo sapiens) (UniProt P36888); assay: Inhibition of FLT3 in human MV4-11 cells assessed as reduction in AKT phosphorylation at 15 nM by Western blot analysis; format: cell-based; conditions: time 0-12 hrs, TDE = time-dependent effect
# [23] = biological target: Receptor-type tyrosine-protein kinase FLT3 (Homo sapiens) (UniProt P36888); assay: Inhibition of FLT3 in human MOLM-13 cells assessed as reduction in ERK phosphorylation at 15 nM by Western blot analysis; format: cell-based; conditions: time 0-12 hrs, TDE = time-dependent effect
# [24] = biological target: Receptor-type tyrosine-protein kinase FLT3 (Homo sapiens) (UniProt P36888); assay: Inhibition of FLT3 in human MV4-11 cells assessed as reduction in ERK phosphorylation at 15 nM by Western blot analysis; format: cell-based; conditions: time 0-12 hrs, TDE = time-dependent effect
# [25] = biological target: Mast/stem cell growth factor receptor Kit (Homo sapiens) (UniProt P10721); assay: Inhibition of KIT in human MOLM-13 cells assessed as reduction in STAT3 phosphorylation at 5 to 25 nM after 24 hrs by Western blot analysis; format: cell-based; conditions: dose 5-25 nM
# [26] = biological target: Mast/stem cell growth factor receptor Kit (Homo sapiens) (UniProt P10721); assay: Inhibition of KIT in human MV4-11 cells assessed as reduction in STAT3 phosphorylation at 5 to 25 nM after 24 hrs by Western blot analysis; format: cell-based; conditions: dose 5-25 nM
# [27] = biological target: Mast/stem cell growth factor receptor Kit (Homo sapiens) (UniProt P10721); assay: Inhibition of KIT in human MOLM-13 cells assessed as reduction in PI3K phosphorylation at 5 to 25 nM after 24 hrs by Western blot analysis; format: cell-based; conditions: dose 5-25 nM
# [28] = tested on: Receptor-type tyrosine-protein kinase FLT3 (Homo sapiens), P36888 [UNDEFINED MUTATION]; assay: Induction of FLT3-ITD degradation in human MV4-11 cells at 20 nM pretreated with MG132 for 2 hrs followed compound addition for 6 hrs by Western blot analysis; format: cell-based
# Receptor-type tyrosine-protein kinase FLT3 (Homo sapiens), P36888 [UNDEFINED MUTATION], sequence (P36888 whole entry, looked up, change not shown): as the sequence (P36888 whole entry) above
# [29] = tested on: Receptor-type tyrosine-protein kinase FLT3 (Homo sapiens), P36888 [UNDEFINED MUTATION]; assay: Induction of FLT3-ITD degradation in human MV4-11 cells assessed as accumulation of ubiquitinated FLT3-ITD at 15 nM preincubated for 4 hrs followed by MG132 addition for 2 hrs by immunoprecipitation assay; format: cell-based; conditions: time 6.0 hrs
# MV4-11 [30] = assay: Reduction in intracellular ROS level in human MV4-11 cells measured after 12 hrs by DCFH-DA probe based flow cytometry; format: functional, cell-based; conditions: dose 25-200 nM
# [31] = Toxicity in NOD/SCID mouse xenografted with human MV4-11 cells assessed as effect on body weight at 3 mg/kg/day, iv administered for 12 hrs; format: organism-based; conditions: in vivo
# [32] = biological target: Platelet-derived growth factor receptor alpha (Homo sapiens) (UniProt P16234); conditions: dose 1000.0 nM
# Description: Inhibition of PDGFRalpha (unknown origin) at 1000 nM relative to control
# [33] = biological target: Tyrosine-protein kinase ITK/TSK (Homo sapiens) (UniProt Q08881); conditions: dose 1000.0 nM
# Description: Inhibition of ITK (unknown origin) at 1000 nM relative to control
# [34] = biological target: Proto-oncogene tyrosine-protein kinase receptor Ret (Homo sapiens) (UniProt P07949); conditions: dose 1000.0 nM
# Proto-oncogene tyrosine-protein kinase receptor Ret (Homo sapiens), sequence (P07949 whole entry): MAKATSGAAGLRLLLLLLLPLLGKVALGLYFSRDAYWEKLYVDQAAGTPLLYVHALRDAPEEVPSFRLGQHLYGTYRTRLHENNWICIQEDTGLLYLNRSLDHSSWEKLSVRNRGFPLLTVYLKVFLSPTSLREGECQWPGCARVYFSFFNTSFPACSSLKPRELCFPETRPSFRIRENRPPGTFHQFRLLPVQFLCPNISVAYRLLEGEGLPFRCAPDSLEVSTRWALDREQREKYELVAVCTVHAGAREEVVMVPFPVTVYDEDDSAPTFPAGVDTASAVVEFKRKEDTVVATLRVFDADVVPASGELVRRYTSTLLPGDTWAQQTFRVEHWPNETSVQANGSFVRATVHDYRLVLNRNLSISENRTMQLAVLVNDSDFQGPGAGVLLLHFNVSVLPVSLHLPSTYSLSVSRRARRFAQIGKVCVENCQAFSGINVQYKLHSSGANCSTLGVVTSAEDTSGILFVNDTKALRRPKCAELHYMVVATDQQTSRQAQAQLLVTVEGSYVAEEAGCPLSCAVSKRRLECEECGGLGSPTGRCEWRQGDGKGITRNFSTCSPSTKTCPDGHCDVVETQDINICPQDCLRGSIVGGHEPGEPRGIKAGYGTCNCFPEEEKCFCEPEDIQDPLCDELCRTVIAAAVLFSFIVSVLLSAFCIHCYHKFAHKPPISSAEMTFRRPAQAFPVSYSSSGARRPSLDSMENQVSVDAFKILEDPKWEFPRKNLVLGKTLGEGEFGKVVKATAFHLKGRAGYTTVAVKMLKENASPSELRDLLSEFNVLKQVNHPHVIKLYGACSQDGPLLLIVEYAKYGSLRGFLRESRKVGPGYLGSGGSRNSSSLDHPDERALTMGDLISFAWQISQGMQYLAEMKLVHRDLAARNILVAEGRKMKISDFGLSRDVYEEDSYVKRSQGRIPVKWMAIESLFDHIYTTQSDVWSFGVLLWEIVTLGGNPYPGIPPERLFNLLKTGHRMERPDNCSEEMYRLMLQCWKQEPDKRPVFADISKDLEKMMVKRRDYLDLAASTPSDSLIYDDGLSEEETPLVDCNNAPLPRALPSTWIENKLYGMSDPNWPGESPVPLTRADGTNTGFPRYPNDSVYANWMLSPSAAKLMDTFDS
# Description: Inhibition of RET (unknown origin) at 1000 nM relative to control
# [35] = biological target: Vascular endothelial growth factor receptor 2 (Homo sapiens) (UniProt P35968); conditions: dose 1000.0 nM
# Description: Inhibition of KDR (unknown origin) at 1000 nM relative to control
# [36] = biological target: Tyrosine-protein kinase Lck (Homo sapiens) (UniProt P06239); conditions: dose 1000.0 nM
# Description: Inhibition of LCK (unknown origin) at 1000 nM relative to control
# [37] = biological target: Tyrosine-protein kinase receptor UFO (Homo sapiens) (UniProt P30530); conditions: dose 1000.0 nM
# Description: Inhibition of AXL (unknown origin) at 1000 nM relative to control
# [38] = biological target: Homeodomain-interacting protein kinase 1 (Homo sapiens) (UniProt Q86Z02); conditions: dose 1000.0 nM
# Homeodomain-interacting protein kinase 1 (Homo sapiens), sequence (Q86Z02 whole entry, looked up): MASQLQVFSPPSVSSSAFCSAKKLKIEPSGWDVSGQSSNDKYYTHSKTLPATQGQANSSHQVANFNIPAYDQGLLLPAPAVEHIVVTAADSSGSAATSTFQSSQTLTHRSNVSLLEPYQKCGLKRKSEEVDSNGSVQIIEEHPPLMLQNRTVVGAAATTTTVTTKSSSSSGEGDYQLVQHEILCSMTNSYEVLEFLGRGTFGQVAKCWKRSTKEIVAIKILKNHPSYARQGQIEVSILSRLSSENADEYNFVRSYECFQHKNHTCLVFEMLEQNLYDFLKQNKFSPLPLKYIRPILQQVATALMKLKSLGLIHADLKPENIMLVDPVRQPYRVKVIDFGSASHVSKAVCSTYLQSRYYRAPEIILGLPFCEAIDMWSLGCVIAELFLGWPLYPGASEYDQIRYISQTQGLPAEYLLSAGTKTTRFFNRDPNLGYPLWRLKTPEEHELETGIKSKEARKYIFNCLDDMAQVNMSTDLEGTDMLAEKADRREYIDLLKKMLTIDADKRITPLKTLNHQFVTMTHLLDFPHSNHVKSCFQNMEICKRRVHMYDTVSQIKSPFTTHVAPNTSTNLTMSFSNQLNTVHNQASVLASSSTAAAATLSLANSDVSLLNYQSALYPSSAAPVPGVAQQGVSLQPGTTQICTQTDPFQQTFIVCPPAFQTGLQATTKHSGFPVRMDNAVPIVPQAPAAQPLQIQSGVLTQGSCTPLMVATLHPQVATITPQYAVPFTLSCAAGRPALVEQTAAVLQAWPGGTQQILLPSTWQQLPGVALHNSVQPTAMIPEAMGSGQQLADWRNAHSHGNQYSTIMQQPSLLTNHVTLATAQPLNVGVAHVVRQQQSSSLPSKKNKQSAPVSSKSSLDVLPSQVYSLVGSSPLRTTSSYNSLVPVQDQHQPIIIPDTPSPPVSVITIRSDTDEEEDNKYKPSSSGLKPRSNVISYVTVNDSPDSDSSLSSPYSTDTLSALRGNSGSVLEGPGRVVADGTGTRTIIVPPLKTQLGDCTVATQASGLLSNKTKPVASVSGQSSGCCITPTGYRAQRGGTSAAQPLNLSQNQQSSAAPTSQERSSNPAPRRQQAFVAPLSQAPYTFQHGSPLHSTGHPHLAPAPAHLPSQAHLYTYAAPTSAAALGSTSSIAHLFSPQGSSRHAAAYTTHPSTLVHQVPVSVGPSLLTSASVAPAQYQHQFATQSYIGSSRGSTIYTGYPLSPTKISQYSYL
# Description: Inhibition of HIPK1 (unknown origin) at 1000 nM relative to control
# [39] = biological target: Receptor tyrosine-protein kinase erbB-4 (Homo sapiens) (UniProt Q15303); conditions: dose 1000.0 nM
# Description: Inhibition of HER4 (unknown origin) at 1000 nM relative to control
smiles,measurement,setting,value
Nc1c(-c2nc3cc(N4CCN(C(=O)CCCCCNc5cccc6c5C(=O)N(C5CCC(=O)NC5=O)C6=O)CC4)ccc3[nH]2)c(=O)[nH]c2cccc(F)c12 (centres undefined),IC50,MOLM-13 [1],9.5 nM
same,IC50,MV4-11 [2],9.2 nM
same,inhibition,[3],0%
same,inhibition,[4],32%
same,inhibition,[5],37%
same,inhibition,[6],11%
same,inhibition,[7],22%
same,inhibition,[8],17%
same,inhibition,[9],25%
same,inhibition,[10],17%
same,inhibition,[11],3%
same,inhibition,[12],7%
same,Activity,MOLM-13 [13],Dose-Dependent Effect
same,Activity,MV4-11 [14],Dose-Dependent Effect
same,Activity,MOLM-13 [15],Active
same,Activity,MV4-11 [16],Active
same,Activity,MOLM-13 [17],Tde
same,Activity,[18],Active
same,inhibition,[19],Tde
same,inhibition,[20],Tde
same,inhibition,[21],Tde
same,inhibition,[22],Tde
same,inhibition,[23],Tde
same,inhibition,[24],Tde
same,inhibition,[25],Active
same,inhibition,[26],Active
same,inhibition,[27],Active
same,Activity,[28],inactive
same,Activity,[29],Active
same,Activity,MV4-11 [30],Dose-Dependent Effect
same,Activity,[31],Non-Toxic
same,inhibition,[32],82%
same,inhibition,[33],42%
same,inhibition,[34],39%
same,inhibition,[35],69%
same,inhibition,[36],16%
same,inhibition,[37],20%
same,inhibition,[38],5%
same,inhibition,[39],14%
